From patent US20020042121A1, “METHOD FOR MEASURING THE ASSOCIATION OF SUBSTRUCTURES OF PATHOLOGICAL PROTEIN DEPOSITIONS” (priority 1997, published 2002) come the findings set out here.

Structures are written as SMILES.

This assay addresses T1, synthetic Aβ1-42 aggregates (Homo sapiens, UniProt P05067).
T1 construct: synthetic Aβ1-42 aggregates
Kind of assay: FCS measurement of association of the probe Aβ1-42-Cy2 to Aβ1-42 aggregates in the presence of a suspected active substance (screening model). In kind it is biochemical. An excerpt:
A screening method for detecting active substances for the treatment of diseases associated with pathological protein depositions, which is analogous with the method according to the invention, is based on the fact that the association of substructures of the pathological protein depositions, structures forming pathological protein depositions, structures corresponding to pathological protein depositions and/or pathological protein depositions to substructures of the pathological protein depositions, structures forming pathological protein depositions, structures corresponding to pathological protein depositions as targets is measured in the presence of suspected active substances. As an alternative, association of substructures of pathological protein depositions, structures forming pathological protein depositions, structures corresponding to pathological protein depositions and/or pathological protein depositions to substructures of the pathological protein depositions, structures forming pathological protein depositions, structures corresponding to pathological protein depositions as targets is first performed, and then the reversal of the association under the action of suspected active substances is observed. Then, those compounds are identified as active substances which are capable of causing a reversal of the association in a significant way. […]

T1 sequence (P05067 672-713 limits assumed): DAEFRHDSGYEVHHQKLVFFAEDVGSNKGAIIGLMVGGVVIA

Consider `Nc1c(/N=N/c2ccc(-c3ccc(/N=N/c4cc(S(=O)(=O)O)c5ccccc5c4N)cc3)cc2)cc(S(=O)(=O)O)c2ccccc12` [Congo red], for which the “detectable peaks as compared to the control batch” value (1 mM Congo red, FCS, 20 measurements each with one minute of measuring time, FIG. 13 bottom vs top) was “significant decrease of the detectable peaks”. Moreover, for the setting “read-out: decrease of the signal intensity of the homologous association to”, the activity at 1000 µM amounted to 20%.
